# Experimental data: patent US5462861A, “Method for improving enzyme activities with noble gases” (American Air Liquide, Chicago Research Center, priority 1993, dated 1995)
# “Also recorded” adds a separate entry of the source.
# What was measured:
# [1] = Schreiner; independent of oxygen partial pressure; cited from earlier work
# [2] = system: particulate sialidase; details: Sandhoff et al, FEBS Letters 1976; cited from earlier work
# [3] = system: Tyrosinase; assay: Tyrosinase-L-tyrosine reaction, solution saturated with gas; type: biochemical, Mushroom
# Method: (§1) Solution preparation: Optimized w/v solutions are prepared by diluting the enzyme (units/ml) and the substrate (μg/ml) in appropriate buffer (optimized pH and molarity for enzymes). The solutions are used for gas experiments at once to avoid loss of activity. Various enzyme and substrate concentrations and inhibitors may be employed. Physical parameters are varied as required.
# (§2) Preparation of samples: Cuvets are filled with 2 ml of substrate solution by means of a gas-tight syringe. Gas-tight serum vials are filled with enzyme and solvent. Sufficient gas is consecutively bubbled in the cuvets and serum vials, with a 1-hr wait between injections to maximize equilibration of gas. All syringes and dead spaces are purged before filling with the appropriate gas. The amount of gas used has been measured sufficient to saturate the solution required.
# (§3) Spectrophotometric time-drive, reaction rate, and kinetic analyses: cuvets and serum vials are saturated with gas 40 minutes before the run. A gas-filled syringe is used to retrieve 0.5 ml of enzyme solution to avoid air contact. The 0.5 ml syringe injections of enzyme are made simultaneously to effect a common starting time to for the samples. 7 gases (air, O2, N2, Ne, Ar, Kr, Xe) are run at various temperatures each (from 0° to 60° ). Changes in the rate or final equilibrium of the reaction versus ambient air are recorded. Comparison is also made with added oxygen, and with deoxygenation. Some samples are also prepared under pressure.
# 1. Solution preparation: 10% w/v solutions are prepared by diluting the enzyme (units/ml) and the substrate (μg/ml) in Sodium Phosphate buffer (pH 6.85, optimized pH for enzymes). The solutions are stored in refrigerator (0°-5° C.) and used for gas experiments within 2 or 3 days to avoid loss of activity.
# 6. Preparation of run samples: Acrylic cuvets are filled with 2 ml of substrate solution by means of a gas tight syringe. Gastight serum vials are filled with enzyme. 3×10 cc of gas are consecutively bubbled in the cuvets and serum vials, with a […] between injections. This represents a 10× displacement of dead volume while maximizing equilibration of gas. All syringes and dead spaces are purged before filling with the appropriate gas. After the third 10 cc injection, the cuvets and serum vials are left overnight under two 10 cc syringes filled with the appropriate gas in refrigerator at 0°-5° C.
# 8. Spectrophotometric runs: The cuvets and serum vials are filled with 10 cc of gas 40 min before the run. A gas-filled syringe is used to retrieve 0.5 ml of enzyme solution to avoid air contact. The 0.5 ml syringe injections of enzyme are made simultaneously to effect a common starting time t0 for the samples. Seven gases (air, O2, N2, Ne, Ar, Kr, Xe) are run at five temperatures each (15° C., 20° C., 25° C., 30° C., 35° C.). Changes in the rate or final equilibrium of the reaction versus ambient air are recorded.
# The optimal conditions are [E]/[S] (100 μg/ml)/(100 μg/ml), the changes in absorbance being observed at 305 nm.
# 3×10 cc of gas are bubbled in the silicone-sealed cuvets and serum vials (T-3754, T-7755), with an interval of 20 min (at 0°-5°C.) between each gas injection.
# a. The silicone-sealed cuvets are removed from the refrigerator 40 min before the experimental run, filled with 10 cc of gas and left at room temperature (26° C.) under two 10 cc syringes.
# The 0.5 ml syringe injections of enzyme are made simultaneously to effect a common starting time t0 for the samples.
# 200 points, 18 s intervals 1 hr run
# [4] = system: phenylalanine ammonia lyase; assay: Phenylalanine ammonia lyase activity under gas; type: biochemical; details: FIG. 32
# Method: as §1, §2, §3
# (§4) In a complete experiment, an enzyme at optimal pH and buffering salt concentration is reacted with 5 substrate concentrations in solution with noble gas at 1 atm. […] Controls are also run after evacuation of solution by vacuum. The reaction is monitored colorimetrically in a scanning spectrophotometer in real time, and the signals are treated mathematically to obtain rate and yield differences. Sample numbers are constant and sufficient to ensure significance of results. All parameters are independently controlled and measured, and more complex experiments are occasionally carried out.
# [5] = target: Phosphoglucose isomerase (Homo sapiens, UniProt P06744); assay: Phosphoglucose isomerase activity under gas; type: biochemical; details: 25° C., FIG. 35
# Method: as §1, §2, §3, §4
# [6] = system: tyrosinase; assay: Oxygen addition experiment, tyrosinase; type: biochemical
# Method: as §4
# [7] = system: glucosidase
# Method: as §4
# [8] = system: α-D-glucosidase; assay: α-D-glucosidase activity under gas; type: biochemical; details: FIG. 31
# Method: Solution preparation: Optimized w/v solutions are prepared by diluting the enzyme (units/ml) and the substrate (μg/ml) in appropriate buffer (optimized pH and molarity for enzymes). The solutions are used for gas experiments at once to avoid loss of activity. Various enzyme and substrate concentrations and inhibitors may be employed. Physical parameters are varied as required. […] Gas-tight serum vials are filled with enzyme and solvent. Sufficient gas is consecutively bubbled in the cuvets and serum vials, with a 1-hr wait between injections to maximize equilibration of gas. All syringes and dead spaces are purged before filling with the appropriate gas. The amount of gas used has been measured sufficient to saturate the solution required. Spectrophotometric time-drive, reaction rate, and kinetic analyses: cuvets and serum vials are saturated with gas 40 minutes before the run. A gas-filled syringe is used to retrieve 0.5 ml of enzyme solution to avoid air contact. […] Changes in the rate or final equilibrium of the reaction versus ambient air are recorded. Comparison is also made with added oxygen, and with deoxygenation. Some samples are also prepared under pressure.
compound,measurement,setting,value
[N-]=[N+]=O [nitrous oxide],inhibition per atmosphere of added gas,[1],1.9 % inhibition per atmosphere
same,effect on activity of particulate sialidase,[2],enhance the activity
FC(F)(F)C(Cl)Br (centres unmarked) [halothane],effect on activity of particulate sialidase,[2],enhance the activity
"O=O [oxygen, reference compound]",effect on tyrosinase-L-tyrosine reaction,[3]; 15° C.,approximately the same effect
same,effect on tyrosinase-L-tyrosine reaction,[3]; 20° C.,only a moderate inhibitory effect; also recorded: little effect; also recorded: no enhancing effect; also recorded: does not enhance
same,effect on tyrosinase-L-tyrosine reaction,[3]; 30° C.,inhibitory effect; also recorded: no longer enhances; also recorded: no enhancing effect
same,temperature dependence of the effect on tyrosinase,[3]; various temperatures (15-35° C.),curves obtained with oxygen instead of air are identical; also recorded: saturates at 30 °C
same,effect on phenylalanine ammonia-lyase,[4],enhancement
same,effect on phosphoglucose isomerase,[5],inhibition
same,effect of oxygen on tyrosinase activity,[6]; addition of a small amount oxygen,enhanced tyrosinase activity slightly
same,maximum increase in activity of tyrosinase,[6]; addition of oxygen to air,6%
same,effect of adding oxygen to glucosidase reactions,[7],no observed effect
same,effect on α-D-glucosidase,[8],enhancement
"FS(F)(F)(F)(F)F [SF6, sulfur hexafluoride, reference compound]",effect on α-D-glucosidase,[8],enhancement
